Patent publication US10765114B2, “4-amino-6-(pyridyl and 2-substitutedphenyl)-picolinates and 6-amino-2-(pyridyl and 2-substitutedphenyl)-pyrimidine-4-carboxylates and their use as herbicides” (Dow AgroSciences LLC, priority 2013, dated 2020)
Where two headings read alike, the source gives them in different places.

Assays:
[1] = test system: Key Broadleaf Weed and Crop Species; test: Post-Emergent Test II (Table 5); type: in vivo; settings: post-emergence, 336 h; for pest or weed control at 70 g/ha: application rate 70 (kg ai/ha; footnote: g ai/ha); for pest or weed control at 140 g/ha: application rate 140 (kg ai/ha; footnote: g ai/ha)
In short: (§1)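 Visual injury ratings (0 = no injury, 100 = complete kill) taken 14 days after treatment, relative to untreated controls. Compounds, in an acetone/DMSO aqueous carrier with crop oil and surfactant, were applied by track sprayer at 187 L/ha, in a twofold dilution series from the top rate, to plants at the first to second true-leaf stage.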

[2] = test system: Key Grass and Sedge Weeds as well as Grass Crops; test: Post-Emergent Test II (Table 6); type: in vivo; settings: post-emergence, 336 h, 14 days after application; for pest or weed control at 70 g/ha: 70 g ai/ha; for pest or weed control at 140 g/ha: 140 g ai/ha
In short: as §1

[3] = Abutilon theophrasti, ABUTH: velvetleaf (Abutilon theophrasti), read-out: Visual Growth Reduction (%) 14 Days After Application ABUTH
[4] = Amaranthus retroflexus, AMARE: redroot pigweed (Amaranthus retroflexus), read-out: Visual Growth Reduction (%) 14 Days After Application AMARE
[5] = Brassica napus, BRSSS: oilseed rape, canola (Brassica napus), read-out: Visual Growth Reduction (%) 14 Days After Application BRSSS
[6] = Chenopodium album, CHEAL: lambsquarters (Chenopodium album), read-out: Visual Growth Reduction (%) 14 Days After Application CHEAL
[7] = Euphorbia heterophylla, EPHHL: wild poinsettia (Euphorbia heterophylla), read-out: Visual Growth Reduction (%) 14 Days After Application EPHHL
[8] = Helianthus annuus, HELAN: sunflower (Helianthus annuus), read-out: Visual Growth Reduction (%) 14 Days After Application HELAN
[9] = Viola tricolor, VIOTR: wild pansy (Viola tricolor), read-out: Visual Growth Reduction (%) 14 Days After Application VIOTR
[10] = CYPSS, read-out: Visual Growth Reduction (%) 14 Days After Application CYPSS
[11] = DIGSA: crabgrass (Digitaria sanguinalis), read-out: Visual Growth Reduction (%) 14 Days After Application DIGSA
[12] = ECHSS, read-out: Visual Growth Reduction (%) 14 Days After Application ECHSS
[13] = ORYSS (crop), read-out: Visual Growth Reduction (%) 14 Days After Application ORYSS
[14] = SETFA: giant foxtail (Setaria faberi), read-out: Visual Growth Reduction (%) 14 Days After Application SETFA
[15] = SORVU: grain sorghum (Sorghum vulgare), read-out: Visual Growth Reduction (%) 14 Days After Application SORVU
[16] = TRZSS (crop), read-out: Visual Growth Reduction (%) 14 Days After Application TRZSS
[17] = ZEAMX: maize, corn (Zea mays), read-out: Visual Growth Reduction (%) 14 Days After Application ZEAMX

SMILES | pest or weed control at 70 g/ha [1, 3] [%] | pest or weed control at 140 g/ha [1, 3] [%] | pest or weed control at 70 g/ha [1, 4] [%] | pest or weed control at 140 g/ha [1, 4] [%] | pest or weed control at 70 g/ha [1, 5] [%] | pest or weed control at 140 g/ha [1, 5] [%] | pest or weed control at 70 g/ha [1, 6] [%] | pest or weed control at 140 g/ha [1, 6] [%] | pest or weed control at 70 g/ha [1, 7] [%] | pest or weed control at 140 g/ha [1, 7] [%] | pest or weed control at 70 g/ha [1, 8] [%] | pest or weed control at 140 g/ha [1, 8] [%] | pest or weed control at 70 g/ha [1, 9] [%] | pest or weed control at 140 g/ha [1, 9] [%] | pest or weed control at 70 g/ha [2, 11] [%] | pest or weed control at 140 g/ha [2, 11] [%] | pest or weed control at 70 g/ha [2, 12] [%] | pest or weed control at 140 g/ha [2, 12] [%] | pest or weed control at 70 g/ha [2, 13] [%] | pest or weed control at 140 g/ha [2, 13] [%] | also measured
Nc1cc(-c2ccc(Cl)c(F)c2C(=O)O)nc(C(=O)O)c1Cl [Compound 56, 4-Amino-6-(2-carboxy-4-chloro-3-fluorophenyl)-3-chloropicolinic acid] | 0 to 29 | 0 to 29 | 0 to 29 | 0 to 29 | 0 to 29 | 0 to 29 | 45 to 59 | 75 to 84 | 0 to 29 | 0 to 29 | 0 to 29 | 0 to 29 | 0 to 29 | 0 to 29 | 0 to 29 | 0 to 29 | 0 to 29 | 0 to 29 | 0 to 29 | 0 to 29 | pest or weed control at 70 g/ha [2, 10]: 0 to 29%; pest or weed control at 140 g/ha [2, 10]: 0 to 29%; pest or weed control at 70 g/ha [2, 14]: 0 to 29%; pest or weed control at 140 g/ha [2, 14]: 0 to 29%; pest or weed control at 70 g/ha [2, 15]: 0 to 29%; pest or weed control at 140 g/ha [2, 15]: 0 to 29%; pest or weed control at 70 g/ha [2, 16]: 0 to 29%; pest or weed control at 140 g/ha [2, 16]: 0 to 29%; pest or weed control at 70 g/ha [2, 17]: 0 to 29%; pest or weed control at 140 g/ha [2, 17]: 0 to 29%
COC(=O)c1nc(-c2ccc(Cl)c(F)c2SC)cc(N)c1Cl [Compound 58] | 85 to 94 | 85 to 94 | 85 to 94 | 95 to 100 | 30 to 44 | 60 to 74 | 95 to 100 | 95 to 100 | 0 to 29 | 0 to 29 | 0 to 29 | 75 to 84 | 0 to 29 | 0 to 29 | 0 to 29 | 0 to 29 | 0 to 29 | 0 to 29 | 0 to 29 | 0 to 29 | pest or weed control at 70 g/ha [2, 14]: 0 to 29%; pest or weed control at 140 g/ha [2, 14]: 0 to 29%; pest or weed control at 70 g/ha [2, 15]: 0 to 29%; pest or weed control at 140 g/ha [2, 15]: 0 to 29%; pest or weed control at 70 g/ha [2, 16]: 0 to 29%; pest or weed control at 140 g/ha [2, 16]: 0 to 29%; pest or weed control at 70 g/ha [2, 17]: 0 to 29%; pest or weed control at 140 g/ha [2, 17]: 0 to 29%
COC(=O)c1nc(-c2ccc(Cl)c(OC)c2C(F)F)cc(N)c1Cl [Compound 60, methyl 4-amino-3-chloro-6-(4-chloro-2-(difluoromethyl)-3-methoxyphenyl)picolinate] | 95 to 100 | 95 to 100 | 95 to 100 | 95 to 100 | 60 to 74 | 75 to 84 | 95 to 100 | 95 to 100 | 60 to 74 | 60 to 74 | 85 to 94 | 85 to 94 | 30 to 44 | 30 to 44 | 0 to 29 | 30 to 44 | 0 to 29 | 30 to 44 | 0 to 29 | 0 to 29 | pest or weed control at 70 g/ha [2, 10]: 30 to 44%; pest or weed control at 140 g/ha [2, 10]: 30 to 44%; pest or weed control at 70 g/ha [2, 14]: 0 to 29%; pest or weed control at 140 g/ha [2, 14]: 0 to 29%; pest or weed control at 70 g/ha [2, 15]: 0 to 29%; pest or weed control at 140 g/ha [2, 15]: 45 to 59%; pest or weed control at 70 g/ha [2, 16]: 0 to 29%; pest or weed control at 140 g/ha [2, 16]: 0 to 29%; pest or weed control at 70 g/ha [2, 17]: 0 to 29%; pest or weed control at 140 g/ha [2, 17]: 0 to 29%
